Data taken from patent US8741578B2, “Methods of detecting chronic lymphocytic leukemia with Hsp90 and ZAP-70” (The Regents of the University of California, priority 2004, dated 2014).
“And” between values parts separate entries of the source, which are not always exact repeats. Identical values can stand only once. “Also recorded” adds a separate entry of the source. Like-named read-outs stand apart in the source and are kept apart here.

Experiments:
ZAP-70 in CLL cells = assay: ZAP-70 expression in CLL cells after treatment (intracellular staining, immunoblot); format: cell-based, human; details: for IC50: read-out: IC50, dose-dependent reduction of leukemia-cell ZAP-70 expression
CLL cells in whole blood = assay: Whole blood apoptosis test of CLL subpopulation (DiOC6, anti-CD5/anti-CD19); details: different concentrations, room temperature
[1] = system: Purified native Hsp90 protein; details: read-out: IC50, inhibition of binding of Hsp90 to biotin-GM
[2] = system: Hsp90 from ZAP-70-negative CLL cells, normal B and T cells; details: read-out: IC50, inhibition of binding of Hsp90 to biotin-GM; lysates from ZAP-70-negative CLL cells or normal T or B cells
CLL cells = assay: Apoptosis of primary CLL cells by flow cytometry (DiOC6/PI); details: 100 nM; for Apoptosis after treatment: ZAP-70+ CLL cells
[3] = system: Ad-ZAP-70 transduced CLL cells; assay: Apoptosis of ZAP-70-negative CLL cells transduced with Ad-ZAP-70; format: cell-based, human; details: 100 nM, 48 hours after 48 hours of transduction; P≦0.001
Experimental: . (A) ZAP-70-negative leukemia cells were transduced with adenovirus expressing ZAP-70 (Ad-ZAP-70—solid histogram) and β-galactosidase (Ad-LacZ—bold line histogram). Cells were kept in media as a control (dashed line histogram). After 48 hours in culture Ad-ZAP-70 but not Ad-LacZ transduced cells expressed the ZAP-70 transgene (46% expression with a mean fluorescence intensity ratio (MFIR) of 2.8). (B) ZAP-70-negative CLL cells were transduced with adenovirus and after 48 hours they were harvested and lysed. Immunoprecipitations (IP) and immunoblots were performed with the antibodies indicated. […]
cDNA of ZAP-70 extracted from normal T cells was cloned into the CMV promoter and polyadenylation signal of pcDNA3. This construct was then subcloned into the shuttle vector MCS(SK)pXCX2. This shuttle vector was cotransfected with pJM17 into 293 cells using the calcium phosphate method.
Isolated adenovirus plaques were harvested and used to infect 293 cells. High titer adenovirus preparations were obtained. CLL cells were infected with either Ad-ZAP-70 or a control adenovirus vector (Ad-LacZ) for 48 hours at 37° C. using a multiplicity of infection (MOI) of 1000.
. ZAP-70-negative CLL cells were transduced with an adenovirus vector encoding ZAP-70 (Ad-ZAP-70) or β-galactosidase (Ad-LacZ) as a control. […]

[4] = system: B-cell receptor (BCR) signaling in ZAP-70+ CLL cells; assay: B-cell receptor signaling after anti-μ stimulation in ZAP-70+ CLL cells (IP/immunoblot)
ZAP-70 in T cells = assay: ZAP-70 expression in T cells after treatment (flow cytometry); format: cell-based, human

IC50 [1] | IC50 (ZAP-70 in CLL cells; Homo sapiens, CLL cell, 24 h) | SMILES | IC50 (ZAP-70 in CLL cells; ZAP-70+ CLL cells, after 24 hours) | Induction of apoptosis in whole blood CLL subpopulation (CLL cells in whole blood) | IC50 [2] | 17-AAG-induced apoptosis, % (CLL cells; 48 hours, primary CLL cells, each table row is one patient sample (patient no. 1-25)) | Apoptosis after treatment (CLL cells; 24 hours) | Apoptosis after treatment (CLL cells; 72 hours) | Apoptosis compared with non-transduced or Ad-LacZ transduced cells [3] | Effect on level/degradation of p72Syk, IKK-α ([4]; ZAP-70+ CLL cells) | Response to BCR ligation with anti-μ (p72Syk phosphorylation, IκB-α degradation) ([4]; prior treatment for ≧24 hours) | Post-treatment ZAP-70 mean fluorescence intensity (MFI) (ZAP-70 in CLL cells; CLL cells, 300 nM, 48 hours, prior to treatment 110) | Effect on ZAP-70 expression in T cells (ZAP-70 in T cells; T cells from CLL patients or healthy donors, even at ≧300 nM) | Post-treatment ZAP-70 mean fluorescence intensity (MFI) (ZAP-70 in T cells; T cells, 300 nM, 48 hours, prior to treatment 210)
 |  | CO[C@H]1/C=C\C=C(/C)C(=O)NC2=CC(=O)C(NCCN(C)C)=C(C[C@@H](C)C[C@H](OC)[C@H](O)[C@@H](C)/C=C(\C)[C@@H]1OC(N)=O)C2=O [17-DMAG, 17-(2-dimethylaminoethy)amino-17-demethoxygeldanamycin] | 60 nM |  |  |  |  |  |  |  |  |  |  | 
600 nM | 60 nM | C=CCNC1=C2CC(C)CC(OC)C(O)C(C)/C=C(\C)C(OC(N)=O)C(OC)/C=C\C=C(/C)C(=O)NC(=CC1=O)C2=O (centres unmarked) [17-AAG, 17-allylamino-17-demethoxygeldanamycin] |  | exclusively in the ZAP-70 positive cells | ≥ 300 nM | 4.7% and 11.5% and 12.3% and 14.9% and 3.7% and 0.5% and 12.6% and 3.4% and 22.4% and 55.4% and 33.9% and 37.9% and 35.4% and 41.3% and 57.9% and 57.7% and 67.4% and 69.4% and 66.8% and 78.8% and 79.9% and 74.4% and 3.9% and 4.5% and 1.2% | 30% | 50% | significantly higher level of apoptosis | did not alter the level of p72^Syk; also recorded: did not induce degradation of p72^Syk or IKK-α | inert to stimulation with anti-μ antibody | 25 | did not affect ZAP-70 expression levels in T cells | 190
